# Measurements from patent US20220054610A1, “SLOW-CYCLING CELL-RNA BASED NANOPARTICLE VACCINE TO TREAT CANCER” (University of Florida Research Foundation, Inc., priority 2018, published 2022).
# Experiments:
# hGBM SCCs and FCCs = test: Cell death by flow cytometry (propidium iodide incorporation, cleaved caspase 3); type: cell-based, human; settings: for apoptotic cell death (cleaved caspase 3) in SCCs: unlike FCCs, 24 hours of treatment
# Procedure: Propidium iodide incorporation and expression of cleaved caspase 3 were used to compare the effects of glucose restriction and/or mitochondrial function inhibition (by rotenone or metformin treatment). Briefly, cells were labeled with CellTrace dye and grown in complete medium for 5-7 days before being placed in high glucose (HG; >500 mg/dL) or physiological glucose conditions (PG; 90-110 mg/dL) and/or treated with rotenone (0.5-1 μM) or metformin (10-20 mM) for 24 hours. Media glucose concentrations were monitored daily and maintained constant throughout the experiments by adding glucose to the cell cultures as needed, which prevented the glucose supply exhaustion that might have occurred due to FCCs' higher division rate.
# (§1) Propidium iodide and cleaved caspase 3 staining were quantified using flow cytometry. The effects of restricting glucose along with mitochondrial targeting using rotenone or metformin were investigated using the CyQUANT™ assay. Cells were plated at 60,000 cells per well in 96-well plates and exposed to the treatments alone or in combination (physiological glucose, 0.5 μM rotenone, and 10 mM metformin). CyQUANT™ binding dye was added to each well and incubated for 30 min at 37° C. before being quantified using Biotek™ Cytation™ 3 Cell Imaging Multi-Mode Reader.
# [1] = system: L0, L1, L2 GBM patient-derived cell line xenografts; test: In vivo survival with FABP7 inhibitor and/or 2-DG, Kaplan-Meier and Cox frailty model; design: species or system NOD-SCID mice; settings: Cox frailty model, all three GBM cell lines grouped
# FABP3 = target: T1, FABP3 (Homo sapiens, UniProt P05413); test: C16-BODIPY fatty acid uptake by flow cytometry, FABP3 inhibition; type: cell-based; settings: SCCs; 250 nM FABP3 inhibitor
# T1 construct: endogenous in cells; host or cells: patient-derived GBM cells (SCCs and FCCs)
# T1 sequence (P05413 whole entry): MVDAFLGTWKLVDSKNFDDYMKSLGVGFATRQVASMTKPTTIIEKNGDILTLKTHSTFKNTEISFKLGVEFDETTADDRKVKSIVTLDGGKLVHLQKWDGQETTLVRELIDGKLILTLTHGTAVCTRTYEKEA
# Procedure: (§2) Each cell line was labeled with CellTrace dye and grown for 5-7 days. Cells were then dissociated and treated with different BODIPY® FLC16 (Molecular probes) concentrations and incubation times described below. Fatty acids conjugated to C16-BODIPY fluorophore undergo native-like metabolism and transport. Dose response was performed with 0, 0.5, 2.5, 5, 10, 25, and 50 nM BODIPY, and the time course was done at a concentration of 5 nM for 1, 4, 5, 10, and 15 min. The cells were then washed and fixed with 4% paraformaldehyde. To determine the amount of fatty acid uptake, cells were analyzed by flow cytometry on a BD LSRII Flow Cytometer. Fatty acid transporter inhibitors SB-FI-26 (Cayman Chemicals, #14191) and BMS309403 (Millipore, #34310) were used to inhibit FABP7 (Kaczocha et al., 2014) and FABP3 (Furuhashi et al., 2007), respectively.
# FABP7 = target: T2, FABP7 (Homo sapiens, UniProt O15540); test: C16-BODIPY fatty acid uptake by flow cytometry, FABP7 inhibition; type: cell-based; settings: SCCs; 200 nM FABP7 inhibitor, L1
# T2 construct: endogenous in cells; host or cells: L1 patient-derived GBM cell line, slow-cycling (SCC) and fast-cycling (FCC) cells
# T2 sequence (O15540 whole entry): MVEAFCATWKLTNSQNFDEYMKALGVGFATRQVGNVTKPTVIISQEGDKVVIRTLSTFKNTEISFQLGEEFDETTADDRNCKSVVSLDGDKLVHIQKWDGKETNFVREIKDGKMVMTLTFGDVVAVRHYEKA
# Procedure: as §2
# L1 SCCs and FCCs = test: CyQUANT proliferation assay, FABP7 inhibitor with high or physiological glucose; type: cell-based, human; settings: 5 days
# Excerpt: (FIG. 7A) GSEA comparing RNA sequencing results between SCCs and FCCs (n=3 biological replicates, L0-1-2) for the fatty acid metabolism gene signature. FDR, false discovery rate; NES, normalized enrichment score; Nom., nominal. (FIG. 7B) Results for qRT-PCR of genes differentially expressed between SCCs and FCCs using the RT2 Profiler PCR Array for Human Fatty Acid Metabolism. Changes in transcript levels are given as percent change relative to FCCs (n=3-8, p<0.05, one sample t-test). (FIG. 7C) FABP7 expression in brain (n=4), breast (n=336), colorectal (n=374), lung (n=117), ovarian (n=242), and pancreatic (n=20) cancer cell lines (**, p<0.005, ****, p<0.0001, one-way ANOVA). (FIG. 7D) Evaluation of the Bredel dataset indicated higher expression of FABP7 in glioblastoma (n=27) compared to non-malignant (n=4) brain tissue (**, p<0.005, t-test). […] (FIG. 7J) C16-BODIPY uptake was measured in L1 GBM line SCCs or FCCs cultured with or without 200 nM FABP7 inhibitor (FABP7i, each condition, n=3, *** p<0.0001, linear regression). […] Cell proliferation was assessed using CyQUANT assays 5 days after treatment (n=2-3, * p<0.05, one-way ANOVA with Tukey post-test). (FIG. 7L) C16-BODIPY uptake was measured in the L1 wild-type (WT) and CRISPR-FABP7 (crFABP7) cell line (each condition, n=3, * p<0.05, linear regression). […]
# [2] = system: GBM unsorted and SCC populations; test: Tumor sphere migration assay; type: cell-based, human
# Procedure: For quantification of cell migration, tumor spheres were plated onto a laminin/poly-D-lysine coated surface at low density and in the presence of growth factors, FABP7 inhibitor (SB-FI-26), or DMSO as a solvent control. Images were taken from the same spheres 2 hours and 24 hours after plating with a Leica DM IL microscope equipped with a DFC3000G camera and Leica application suite X software. The greatest distance of outgrowing cells was measured using ImageJ, and migration distance was calculated as the difference between the two time points. Only spheres with a diameter greater than 50 μm, 2 hours after plating, were used to measure migration distance.
# [3] = system: GBM xenograft tumor cell invasion; test: In vivo tumor cell invasion after FABP7 inhibition; design: species or system NOD-SCID mice; settings: in vivo inhibition of FABP7
# Procedure: Tumor invasion was measured using human-specific nestin labeling (Millipore, MAB5326). Full images of brain sections were obtained by multiple gray scale imaging acquired using Spot Advanced software (Spot Imaging Solutions), merged into full images, and inverted into black-and-white images using Photoshop CS6 (Adobe Systems). Staining threshold levels were adjusted in Image J software to distinguish tumor from background, as previously described (Siebzehnrubl F A, et al. (2013) EMBO Mol Med: 1196-1212). Invasion index was obtained by calculating the ratio of the squared-perimeter distance over the area (P2/A). Dissociated tumors are associated with higher invasion indices compared to more spherical tumors characterized by lower invasion indices. High-power images of stained tissues were taken using an IX81-DSU spinning disk confocal microscope (Olympus) fitted with a 60x water immersion objective, and all images were captured as z-stacks (0.5 μm steps). For 3D imaging, pictures were acquired using a UPLSAPO 60x water objective and Hamamatsu ORCA-AG Camera. Images were captured as z-stacks (0.5 μm steps). All image analyses and 3D surface reconstructions utilized the 3i SlideBook v4.2 Software (with Deconvolution Module). Image capture settings were standardized across samples. 3D surface reconstruction rendering cut-off values were also standardized in the 3i SlideBook software.
# hGBM cells = test: CyQUANT assay, glucose restriction combined with mitochondrial targeting; type: cell-based, human; settings: physiological glucose plus 0.5 μM rotenone or 10 mM metformin, 24 hours
# Procedure: as §1
# [4] = system: L1 SCC, FCC or total unsorted intracranial xenografts; test: In vivo rotenone treatment of intracranially implanted animals, survival; design: species or system NOD-SCID mice
# Excerpt: Adult male NOD-SCID mice (7-15 weeks old) were used for in vivo tumor implants following NIH and institutional (IACUC) guidelines and regulations for animal care and handling. The mice colonies were maintained at the University of Florida's animal facility. Animals were randomized to cages following implantation. For in vivo tumor invasion assay, FACS cells were intracranially implanted as previously described (Deleyrolle L P, et al. (2011) Brain 134:1331-43; Siebzehnrubl F A, et al. (2013) Hoang-Minh et al., EMBO Mol Med: 1196-1212) and invasion assay was performed 10 weeks post implant. For in vivo TMZ treatment, animals were implanted with 100,000 cells immediately after cell sorting. Tumor-bearing animals were intraperitoneally treated with 5 injections of 20 mg/kg TMZ over 5 days at 3 (hGBM L0) or 4 (hGBM L2) weeks post implantation. For in vivo restricted glucose and mitochondria targeting experiments, animals were xenografted with SCCs or FCCs and subjected to either a high carbohydrate control diet or a custom supplemented high fat/low carbohydrate dietary regimen (sHFLC) (Martuscello R T, et al. (2016) Clin Cancer Res. 22:2482-95). Each group received vehicle or rotenone treatment (0.5 mg/kg i.p, once a week for 6 weeks).
compound,measurement,setting,value
"O=CC[C@@H](O)[C@H](O)[C@H](O)CO [2-DG, 2-deoxyglucose]","cell death, sensitivity of SCCs versus FCCs to glycolysis inhibition","hGBM SCCs and FCCs; 0, 5 or 20 mM for 24 hours",SCCs are less sensitive to this pharmacological inhibition than FCCs
same,average (main) effect HR,[1],0.74
same,mortality hazard ratio (HR) versus control group,[1],0.84
CCc1c(-c2ccccc2)c(-c2ccccc2)nn1-c1ccccc1-c1cccc(OCC(=O)O)c1 [FABP3 inhibitor],uptake of fluorescently labeled fatty acid C16-BODIPY,FABP3,significantly decreased
O=C(O)C1[C@H](c2ccccc2)C(C(=O)Oc2cccc3ccccc23)[C@H]1c1ccccc1 (stereo partly shown) [SB-FI-26],uptake of fluorescently labeled fatty acid C16-BODIPY,FABP7,significantly decreased
same,FCC growth,"L1 SCCs and FCCs; L1 FCCs, decreased glucose plus 200 nM FABP7 inhibitor",did not result in any additional growth inhibitory effect on FCCs
same,SCC survival/proliferation,"L1 SCCs and FCCs; L1 SCCs, lower glucose plus 200 nM FABP7 inhibitor",significantly inhibited
same,cell migration,"[2]; FACS-sorted SCCs, all cell lines tested",significant decrease of cell migration
same,cell migration,"[2]; unsorted total GBM populations, all three lines, 1 and 10 μM",significantly reduced overall cell migration
same,tumor cell invasion in vivo,[3],decreased of cell invasion
same,average (main) effect HR,[1],0.38
same,mortality hazard ratio (HR) versus control group,[1],0.43
CN(C)C(=N)N=C(N)N [metformin],apoptotic cell death (cleaved caspase 3) in SCCs,hGBM SCCs and FCCs,significant increase in apoptotic cell death
same,"GBM cell survival, combination with glucose deprivation",hGBM cells,greatest inhibitory effect on GBM cell survival
C=C(C)[C@H]1Cc2c(ccc3c2O[C@@H]2COc4cc(OC)c(OC)cc4[C@@H]2C3=O)O1 [rotenone],apoptotic cell death (cleaved caspase 3) in SCCs,hGBM SCCs and FCCs,significant increase in apoptotic cell death
same,survival,"[4]; FCC-implanted animals, 0.5 mg/kg i.p. once a week",did not gain any survival benefit
same,survival,"[4]; SCC-implanted animals, 0.5 mg/kg i.p. once a week, versus vehicle",significant increase in survival
same,survival,[4]; animals implanted with total unsorted population,improved survival
same,"GBM cell survival, combination with glucose deprivation",hGBM cells,greatest inhibitory effect on GBM cell survival
